Assay results from PMC10620772, “Design, synthesis, and biological evaluation of new pyrimidine-5-carbonitrile derivatives as novel anti-cancer, dual EGFR^WT/COX-2 inhibitors with docking studies” (RSC Advances, 2023).

Experiments:
Type in all cases: cell-based, human
K-562 = assay: NCI60 antitumor screening; settings: for GI%: 10 μM one-dose; for inhibition at 10 µM: Homo sapiens, 10 μM single dose, (leukaemia), read-out: growth inhibition percent (GI%)
SR = assay: NCI60 antitumor screening; settings: for inhibition at 10 µM: Homo sapiens, 10 μM single dose, SR (leukaemia), read-out: growth inhibition percent (GI%)
EKVX = assay: NCI60 antitumor screening; settings: for inhibition at 10 µM: Homo sapiens, 10 μM single dose, EKVX (non-small cell lung cancer), read-out: growth inhibition percent (GI%)
HOP-62 = assay: NCI60 antitumor screening; settings: for GI%: 10 μM one-dose; for inhibition at 10 µM: Homo sapiens, 10 μM single dose, HOP-62 (non-small cell lung cancer), read-out: growth inhibition percent (GI%)
NCI-H322M = assay: NCI60 antitumor screening; settings: for inhibition at 10 µM: Homo sapiens, 10 μM single dose, NCI-H322M (non-small cell lung cancer), read-out: growth inhibition percent (GI%)
NCI-H460 = assay: NCI60 antitumor screening; settings: for inhibition at 10 µM: Homo sapiens, 10 μM single dose, NCI-H460 (non-small cell lung cancer), read-out: growth inhibition percent (GI%)
COLO 205 = assay: NCI60 antitumor screening; settings: for inhibition at 10 µM: Homo sapiens, 10 μM single dose, COLO 205 (colon cancer), read-out: growth inhibition percent (GI%)
HCT-116 = assay: NCI60 antitumor screening; settings: for inhibition at 10 µM: Homo sapiens, 10 μM single dose, HCT-116 (colon cancer), read-out: growth inhibition percent (GI%)
SW-620 = assay: NCI60 antitumor screening; settings: for inhibition at 10 µM: Homo sapiens, 10 μM single dose, SW-620 (colon cancer), read-out: growth inhibition percent (GI%)
SF-539 = assay: NCI60 antitumor screening; settings: for GI%: 10 μM one-dose; for inhibition at 10 µM: Homo sapiens, 10 μM single dose, SF-539 (CNS cancer), read-out: growth inhibition percent (GI%)
U251 = assay: NCI60 antitumor screening; settings: for inhibition at 10 µM: Homo sapiens, U-251, 10 μM single dose, U251 (CNS cancer), read-out: growth inhibition percent (GI%)
LOX IMVI = assay: NCI60 antitumor screening; settings: for inhibition at 10 µM: Homo sapiens, 10 μM single dose, LOX IMVI (melanoma), read-out: growth inhibition percent (GI%)
MALME-3M = assay: NCI60 antitumor screening; settings: for inhibition at 10 µM: Homo sapiens, 10 μM single dose, MALME-3M (melanoma), read-out: growth inhibition percent (GI%)
MDA-MB-435 = assay: NCI60 antitumor screening; settings: for inhibition at 10 µM: Homo sapiens, 10 μM single dose, MDA-MB-435 (melanoma), read-out: growth inhibition percent (GI%)
SK-MEL-28 = assay: NCI60 antitumor screening; settings: for inhibition at 10 µM: Homo sapiens, 10 μM single dose, SK-MEL-28 (melanoma), read-out: growth inhibition percent (GI%)
OVCAR-4 = assay: NCI60 antitumor screening; settings: for GI%: 10 μM one-dose; for inhibition at 10 µM: Homo sapiens, 10 μM single dose, OVCAR-4 (ovarian cancer), read-out: growth inhibition percent (GI%)
NCI/ADR-RES = assay: NCI60 antitumor screening; settings: for inhibition at 10 µM: Homo sapiens, 10 μM single dose, NCI/ADR-RES (ovarian cancer), read-out: growth inhibition percent (GI%)
A498 = assay: NCI60 antitumor screening; settings: for inhibition at 10 µM: Homo sapiens, 10 μM single dose, A498 (renal cancer), read-out: growth inhibition percent (GI%)
MDA-MB-231/ATCC = assay: NCI60 antitumor screening; settings: for inhibition at 10 µM: Homo sapiens, 10 μM single dose, MDA-MB-231/ATCC (breast cancer), read-out: growth inhibition percent (GI%)
HS 578T = assay: NCI60 antitumor screening; settings: for GI%: 10 μM one-dose; for inhibition at 10 µM: Homo sapiens, 10 μM single dose, HS 578T (breast cancer), read-out: growth inhibition percent (GI%)
T-47D = assay: NCI60 antitumor screening; settings: for inhibition at 10 µM: Homo sapiens, T47D, 10 μM single dose, T-47D (breast cancer), read-out: growth inhibition percent (GI%)
NCI60 cell lines panel = assay: NCI60 antitumor screening, full panel; settings: for One-dose activity over the NCI60 panel: 10 μM; for inhibition at 10 µM: Homo sapiens, 10 μM single dose, mean over NCI60 cell lines, read-out: Mean growth inhibition percent (GI%)
Summary of the method: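 Single-concentration screen at 10 μM across the NCI60 panel (leukaemia, NSCLC, colon, CNS, melanoma, ovarian, renal, prostate, breast). Results are expressed as percent growth inhibition (GI%) of treated lines.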

SMILES: Cc1ccc(CSc2nc(-c3ccc(F)cc3)c(C#N)c(N3CCOCC3)n2)cc1 [4d, 4-(4-Fluorophenyl)-2-((4-methylbenzyl)thio)-6-morpholinopyrimidine-5-carbonitrile]
- GI% (K-562): 10.67%
- GI% (K-562; Table 1): — (GI value > 70%)
- GI% (SR; 10 μM one-dose, Table 1): — (GI value > 70%)
- GI% (EKVX; 10 μM one-dose): 13.10%
- GI% (HOP-62): 36.77%
- GI% (HOP-62; Table 1): — (GI value > 70%)
- GI% (NCI-H322M; 10 μM one-dose): — (GI% < 10)
- GI% (NCI-H460; 10 μM one-dose): — (GI% < 10)
- GI% (COLO 205; 10 μM one-dose): — (GI% < 10)
- GI% (HCT-116; 10 μM one-dose): 19.81%
- GI% (SW-620; 10 μM one-dose): — (GI% < 10)
- GI% (SF-539): 32.27%
- GI% (SF-539; Table 1): — (GI value > 70%)
- GI% (U251; 10 μM one-dose): 13.13%
- GI% (LOX IMVI; 10 μM one-dose): 11.10%
- GI% (MALME-3M; 10 μM one-dose): 26.17%
- GI% (MDA-MB-435; 10 μM one-dose): — (GI% < 10)
- GI% (SK-MEL-28; 10 μM one-dose): — (GI% < 10)
- GI% (OVCAR-4): 20.15%
- GI% (OVCAR-4; Table 1): — (GI value > 70%)
- GI% (NCI/ADR-RES; 10 μM one-dose): — (GI% < 10)
- GI% (A498; 10 μM one-dose): — (GI% < 10)
- GI% (MDA-MB-231/ATCC; 10 μM one-dose): 31.92%
- GI% (HS 578T): 48.85%
- GI% (HS 578T; Table 1): — (GI value > 70%)
- GI% (T-47D; 10 μM one-dose): 12.46%
- Mean GI% (NCI60 cell lines panel; 10 μM one-dose, mean over NCI60): 14.01%

SMILES: N#Cc1c(-c2ccc(F)cc2)nc(SCc2ccc([N+](=O)[O-])cc2)nc1N1CCNCC1 [4g, 4-(4-Fluorophenyl)-2-((4-nitrobenzyl)thio)-6-(piperazin-1-yl) pyrimidine-5-carbonitrile]
- inhibition at 10 µM (K-562): < 10%
- inhibition at 10 µM (SR): < 10%
- inhibition at 10 µM (EKVX): < 10%
- inhibition at 10 µM (HOP-62): < 10%
- inhibition at 10 µM (NCI-H322M): < 10%
- inhibition at 10 µM (NCI-H460): < 10%
- inhibition at 10 µM (COLO 205): < 10%
- inhibition at 10 µM (HCT-116): < 10%
- inhibition at 10 µM (SW-620): < 10%
- inhibition at 10 µM (SF-539): < 10%
- inhibition at 10 µM (U251): < 10%
- inhibition at 10 µM (LOX IMVI): < 10%
- inhibition at 10 µM (MALME-3M): < 10%
- inhibition at 10 µM (MDA-MB-435): < 10%
- inhibition at 10 µM (SK-MEL-28): < 10%
- inhibition at 10 µM (OVCAR-4): < 10%
- inhibition at 10 µM (NCI/ADR-RES): < 10%
- inhibition at 10 µM (A498): < 10%
- inhibition at 10 µM (MDA-MB-231/ATCC): < 10%
- inhibition at 10 µM (HS 578T): < 10%
- inhibition at 10 µM (T-47D): < 10%
- One-dose activity over the NCI60 panel (NCI60 cell lines panel): inactive
- inhibition at 10 µM (NCI60 cell lines panel): < 10%

SMILES: Cc1ccc(CSc2nc(-c3ccc(F)cc3)c(C#N)c(N3CCNCC3)n2)cc1 [4h, 4-(4-Fluorophenyl)-2-((4-methylbenzyl)thio)-6-(piperazin-1-yl)pyrimidine-5-carbonitrile]
- inhibition at 10 µM (K-562): < 10%
- inhibition at 10 µM (SR): < 10%
- inhibition at 10 µM (EKVX): < 10%
- inhibition at 10 µM (HOP-62): < 10%
- inhibition at 10 µM (NCI-H322M): < 10%
- inhibition at 10 µM (NCI-H460): < 10%
- inhibition at 10 µM (COLO 205): < 10%
- inhibition at 10 µM (HCT-116): < 10%
- inhibition at 10 µM (SW-620): < 10%
- inhibition at 10 µM (SF-539): < 10%
- inhibition at 10 µM (U251): < 10%
- inhibition at 10 µM (LOX IMVI): < 10%
- inhibition at 10 µM (MALME-3M): < 10%
- inhibition at 10 µM (MDA-MB-435): < 10%
- inhibition at 10 µM (SK-MEL-28): < 10%
- inhibition at 10 µM (OVCAR-4): < 10%
- inhibition at 10 µM (NCI/ADR-RES): < 10%
- inhibition at 10 µM (A498): < 10%
- inhibition at 10 µM (MDA-MB-231/ATCC): < 10%
- inhibition at 10 µM (HS 578T): 10.1%
- inhibition at 10 µM (T-47D): < 10%
- One-dose activity over the NCI60 panel (NCI60 cell lines panel): inactive
- inhibition at 10 µM (NCI60 cell lines panel): < 10%
